# Test results: US6599748B1, “Hardness indicator composition and method of water hardness analysis” (Miura Co., Ltd., priority 1999, dated 2003)
# Where two headings read alike, the source gives them in different places.
# Assays:
# [1] = Ca chelate stability constant (chelating power with calcium); assay type: physicochemical
# Description: […]. […] […].
# [2] = Description: Therefore, the desensitizer to be added to the metal indicator is explained. […] However, the desensitizer differs from the metal indicator in that the metal indicator forms complex ions in combination with all hardness-component metal ions, while the desensitizer forms complex ions in combination with part of the hardness-component metal ions. […] Symbol “ ” in results represents usableness as the desensitizer, and “×” represents unusableness as the desensitizer.
# Accordingly, Table 1 show the results of judgment determined by taking into account these conditions.
molecule,measurement,setting,value
O=C([O-])CC(O)(CC(=O)O)C(=O)[O-].[K+].[K+] [2K citrate],"Ca chelate stability constant, logK",[1],<2.0
O=C([O-])CNCC(=O)[O-].[K+].[K+] [2K iminodiacetate],"Ca chelate stability constant, logK",[1],2.59
"O=C([O-])CC(O)(CC(=O)[O-])C(=O)[O-].[Na+].[Na+].[Na+] [2Na citrate, sodium citrate]","Ca chelate stability constant, logK",[1]; chelating power with calcium,<2.0
"O=C([O-])CNCC(=O)[O-].[Na+].[Na+] [2Na iminodiacetate, sodium iminodiacetate]","Ca chelate stability constant, logK",[1],2.59
same,"Solubility, g/100 g water",[2],10 g/100 g water
sodium polyacrylate [Na polyacrylate],"Ca chelate stability constant, logK",[1],<2.0
same,"Solubility, g/100 g water",[2],over 40 g/100 g water
